In US10000791B2, “Measurement method for human pancreatic lipase activity” (ASAHI KASEI PHARMA CORPORATION, priority 2013, dated 2018):

Tested on: non-pancreatic lipase
Assay: quantitative evaluation of influence of non-pancreatic lipase (measured value versus theoretical or reference value in heparin-administered samples)
Type: biochemical, human
From the text: Next, the influence of the non-pancreatic lipase activity was obtained as follows on the assumption that the Liquitech reagent is not influenced by the non-pancreatic lipase. First, with respect to measured values of the enzyme activity obtained in samples other than the heparin-administered samples, a regression equation (an independent variable X: enzyme activity attained by Liquitech, a dependent variable Y: enzyme activity attained by the comparative example or the present example) was obtained. Next, with respect to each heparin-administered sample, the variable Y was calculated as a theoretical value by substituting the measured value of the enzyme activity obtained by the Liquitech for the variable X of the regression equation. Thereafter, with respect to each heparin-administered sample, the actually measured value of the enzyme activity obtained by the comparative example or the present example was divided by the theoretical value of the variable Y to calculate a relative percentage (%). It is noted that the acceptable range of the influence was provisionally set as within ±20% in reference to the package insert of “Liquitech Lipase Color II” describing that the accuracy is within ±15% of known activity.
In the present example, NaGDCA was selected as the conjugated bile acid and was combined with a non-conjugated bile acid, NaDCA, (mixed in equal amounts) to examine the behavior of a heparin-administered sample with the pH of a reaction solution changed to 7.1, 7.4 and 7.6. As the buffer solution, the BES buffer was used. As samples, (four) control samples (controls each containing a pancreatic lipase), (ten) normal samples and (nine) heparin-administered samples were used. As a comparative example, NaDCA (in a concentration of 30 mmol/L in the R-1) and NaTDCA (in a concentration of 10 mmol/L in the R-1) were used as the bile acid, and the reaction solution was adjusted to pH 7.95 (the Bicine buffer). Besides, “Liquitech Lipase Color II” manufactured by Roche Diagnostics was used for verifying the effect of the present example. “Liquitech Lipase Color II” was used in accordance with the package insert, and a special calibrator was used for calculating the enzyme activity. Thereafter, in the same manner as in Example 7, with respect to each heparin-administered sample, the actually measured value of the enzyme activity obtained by the comparative example or the present example was divided by the theoretical value to calculate a relative percentage (%). The influence of the non-pancreatic lipase activity and the acceptable range of the influence were the same as those in Example 7.
As a comparative example, NaDCA and NaTDCA (respectively in concentrations of 30 mmol/L and 10 mmol/L in the R-1) were used as the bile acids, and the reaction solution was adjusted to pH 7.95 by using the Bicine buffer to measure a heparin-administered sample. […] The bile acids were used in a total concentration in the R-1 of 40 mmol/L (each in 20 mmol/L in using two of them, and each in 13.3 mmol/L in using three of them). Besides, “Liquitech Lipase Color II” manufactured by Roche Diagnostics was used for verifying the effect of the present example. “Liquitech Lipase Color II” was used in accordance with the package insert, and a special calibrator was used for calculating the enzyme activity. In each of the comparative example and the present example, the lipase activity was calculated by using a molecular extinction coefficient of 6300 L/mol·cm of the reduced NADP. Thereafter, in the same manner as in Example 7, with respect to each heparin-administered sample, the actually measured value of the enzyme activity obtained by the comparative example or the present example was divided by the theoretical value to calculate a relative percentage (%). The influence of the non-pancreatic lipase activity and the acceptable range of the influence were calculated in the same manner as in Example 7.

`C[C@H](CCC(=O)NCC(=O)[O-])[C@H]1CC[C@H]2[C@@H]3[C@H](O)C[C@@H]4C[C@H](O)CC[C@]4(C)[C@H]3CC[C@]12C.[Na+]` [NaGCDCA, sodium glycochenodeoxycholate] was tested, and the “Measured value/theoretical value (Table 5)” value (sample Heparin 31, pH 7.0) was 98.4%, the “Measured value/theoretical value (Table 5)” value (sample Heparin 31, pH 7.95) was 311.8% and the “Measured value/theoretical value (Table 5)” value (sample Heparin 32, pH 7.0) was 98.5%. For the same compound, the “Measured value/theoretical value (Table 5)” value (sample Heparin 32, pH 7.95) was 492.8%, the “Measured value/theoretical value (Table 5)” value (sample PRECINORM, pH 7.0) was 99.3% and the “Measured value/theoretical value (Table 5)” value (sample PRECINORM, pH 7.95) was 107.6%. For the same compound, the “Measured value/theoretical value (Table 5)” value (sample PRECIPATH, pH 7.0) was 100.9%, the “Measured value/theoretical value (Table 5)” value (sample PRECIPATH, pH 7.95) was 111.6% and the “Measured value/theoretical value (Table 5)” value (sample Pool 1, pH 7.0) was 101.8%. For the same compound, the “Measured value/theoretical value (Table 5)” value (sample Pool 1, pH 7.95) was 99.4%, the “Measured value/theoretical value (Table 5)” value (sample Pool 2, pH 7.0) was 89.8% and the “Measured value/theoretical value (Table 5)” value (sample Pool 2, pH 7.95) was 126.2%. For the same compound, the “Measured value/theoretical value (Table 5)” value (sample Seraclear LP, pH 7.0) was 87.0% and the “Measured value/theoretical value (Table 5)” value (sample Seraclear LP, pH 7.95) was 60.4%.

In the case of `C[C@H](CCC(=O)NCCS(=O)(=O)[O-])[C@H]1CC[C@H]2[C@@H]3CC[C@@H]4C[C@H](O)CC[C@]4(C)[C@H]3C[C@H](O)[C@]12C.[Na+]` [NaTDCA, sodium taurodeoxycholate], the “actually measured value/theoretical value (Table 4)” value (Average of Heparin 21-25, pH 6.2) is reported as 104.1%, the “actually measured value/theoretical value (Table 4)” value (Average of Heparin 21-25, pH 6.4) is reported as 102.7% and the “actually measured value/theoretical value (Table 4)” value (Average of Heparin 21-25, pH 6.6) is reported as 97.8%. The “actually measured value/theoretical value (Table 4)” value (Average of Heparin 21-25, pH 6.9) was 94.9%, the “actually measured value/theoretical value (Table 4)” value (Average of Heparin 21-25, pH 7.2) was 100.9% and the “actually measured value/theoretical value (Table 4)” value (Average of Heparin 21-25, pH 7.4) was 119.2%. For the same compound, the “actually measured value/theoretical value (Table 4)” value (Average of Heparin 21-25, pH 7.6) was 212.1%, the “actually measured values relative to theoretical values, average” value (heparin-administered samples, pH 7.4 or lower) was “smaller than 120.0%” and the “actually measured value/theoretical value (Table 4)” value (sample Heparin 21, pH 6.2) was 118.4%. The “actually measured value/theoretical value (Table 4)” value (sample Heparin 21, pH 6.4) was 110.6%, the “actually measured value/theoretical value (Table 4)” value (sample Heparin 21, pH 6.6) was 109.4% and the “actually measured value/theoretical value (Table 4)” value (sample Heparin 21, pH 6.9) was 99.9%. For the same compound, the “actually measured value/theoretical value (Table 4)” value (sample Heparin 21, pH 7.2) was 99.1%, the “actually measured value/theoretical value (Table 4)” value (sample Heparin 21, pH 7.4) was 118.3% and the “actually measured value/theoretical value (Table 4)” value (sample Heparin 21, pH 7.6) was 167.2%. The “actually measured value/theoretical value (Table 4)” value (sample Heparin 22, pH 6.2) was 100.6%, the “actually measured value/theoretical value (Table 4)” value (sample Heparin 22, pH 6.4) was 100.8% and the “actually measured value/theoretical value (Table 4)” value (sample Heparin 22, pH 6.6) was 93.6%. For the same compound, the “actually measured value/theoretical value (Table 4)” value (sample Heparin 22, pH 6.9) was 86.0%, the “actually measured value/theoretical value (Table 4)” value (sample Heparin 22, pH 7.2) was 98.5% and the “actually measured value/theoretical value (Table 4)” value (sample Heparin 22, pH 7.4) was 107.8%. The “actually measured value/theoretical value (Table 4)” value (sample Heparin 22, pH 7.6) was 162.0%, the “actually measured value/theoretical value (Table 4)” value (sample Heparin 23, pH 6.2) was 112.9% and the “actually measured value/theoretical value (Table 4)” value (sample Heparin 23, pH 6.4) was 115.8%. For the same compound, the “actually measured value/theoretical value (Table 4)” value (sample Heparin 23, pH 6.6) was 111.4%, the “actually measured value/theoretical value (Table 4)” value (sample Heparin 23, pH 6.9) was 114.9% and the “actually measured value/theoretical value (Table 4)” value (sample Heparin 23, pH 7.2) was 110.5%. For the same compound, the “actually measured value/theoretical value (Table 4)” value (sample Heparin 23, pH 7.4) was 129.2%, the “actually measured value/theoretical value (Table 4)” value (sample Heparin 23, pH 7.6) was 281.9% and the “actually measured value/theoretical value (Table 4)” value (sample Heparin 24, pH 6.2) was 95.4%. For the same compound, the “actually measured value/theoretical value (Table 4)” value (sample Heparin 24, pH 6.4) was 91.7%, the “actually measured value/theoretical value (Table 4)” value (sample Heparin 24, pH 6.6) was 83.0% and the “actually measured value/theoretical value (Table 4)” value (sample Heparin 24, pH 6.9) was 84.4%. For the same compound, the “actually measured value/theoretical value (Table 4)” value (sample Heparin 24, pH 7.2) was 96.0%, the “actually measured value/theoretical value (Table 4)” value (sample Heparin 24, pH 7.4) was 113.2% and the “actually measured value/theoretical value (Table 4)” value (sample Heparin 24, pH 7.6) was 215.2%. The “actually measured value/theoretical value (Table 4)” value (sample Heparin 25, pH 6.2) was 93.1%, the “actually measured value/theoretical value (Table 4)” value (sample Heparin 25, pH 6.4) was 94.7% and the “actually measured value/theoretical value (Table 4)” value (sample Heparin 25, pH 6.6) was 91.7%. For the same compound, the “actually measured value/theoretical value (Table 4)” value (sample Heparin 25, pH 6.9) was 89.5%, the “actually measured value/theoretical value (Table 4)” value (sample Heparin 25, pH 7.2) was 100.2% and the “actually measured value/theoretical value (Table 4)” value (sample Heparin 25, pH 7.4) was 127.4%. The “actually measured value/theoretical value (Table 4)” value (sample Heparin 25, pH 7.6) was 234.4%.
